In article PMC10666548, “Identification of the bacterial metabolite aerugine as potential trigger of human dopaminergic neurodegeneration” (Environment international, 2023):

Assays:
[1] = Cytotoxicity to proliferating (d0) LUHMES cells, calcein-AM & H-33342 imaging; format: cell-based; settings: human, proliferating LUHMES d0, 24 h exposure, read-out: EC50 (half-maximal cytotoxic potency), cell viability
Experimental: LUHMES cells were cultivated as described previously ([Krug et al., 2013]; [Schildknecht et al., 2013]; [Scholz et al., 2011]). In brief, cells were grown in standard cell culture flasks pre-coated with 50 μg/ml PLO and 1 μg/ml fibronectin in water for at least 3 h at 37 °C. The maintenance culture was kept in proliferation medium consisting of advanced DMEM/F12 with 2 mM L-glutamine, 1x N2-supplement, and 40 ng/ml FGF-2. The cells were incubated at 37 °C with 5% CO2 and passaged trice a week when reaching 75–90% confluence. They were used up to passage 18. […]
Neurite area (NA) and viability (V) were assessed as described previously ([Stiegler et al., 2011]). […] Image acquisition was performed using an Array-Scan VTI HCS Reader (Cellomics, PA, USA) equipped with a Hamamatsu ORCA-ER camera. […]
Nuclei were identified in channel 1 depending on intensity, area, size and shape. […] The NA was automatically calculated by excluding the VCSAs from the VCSs. […]
Fig. 3. […] The cell viability was assessed 24 h later by calcein-AM & H-33342 staining and high content imaging. […] The overall cell viability was assessed by measuring resazurin reduction in technical triplicates. […] The cell viability was assessed 24 h later by calcein-AM & H-33342 staining and high content imaging. […]

LUHMES neurons [2] = assay: LDH-release and resazurin reduction tests on d6 LUHMES; format: cell-based, human; settings: 24 h
Experimental: The assay was performed as described earlier ([Latta et al., 2000]). In brief, supernatants were transferred to an un-coated 96-wellplate and cells were lysed in 110 μl of phosphate buffered saline (PBS) with 0.1% Triton-X100 for 1 h at room temperature. Lactate dehydrogenase (LDH) activity was assessed in the supernatant and the cell lysate individually by combining 10 μl sample with 100 μl potassium phosphate buffer pH 7.5 containing 640 μM pyruvate and […] NADH. NADH was quantified by measuring the absorption at 340 nm over 15 min and its decline was proportional to the LDH content. LDH release was calculated as the ratio of LDHsupernatant/LDHsupernatant+lysate.
The assay was performed as described previously ([Schildknecht et al., 2009]). In brief, cells were stained with 10 μg/ml resazurin and incubated for 30 min at 37 °C and 5% CO2. The fluorescence of resazurin was detected with an excitation wavelength of 530 nm, using a 590 nm long-pass filter to record the emission. […]
Supplementary Figure S7: Viability endpoints measured on d6 LUHMES treated with aerugine Cultures of differentiated LUHMES neurons were exposed on d6 to serial dilutions of aerugine for 24 h. The cell viability (V), neurite area (NA) were assessed 24 h later by calcein-AM & H-33342 staining and high content imaging. Resazurin reduction and LDH release were measured subsequently. […]

LUHMES neurons [3] = assay: Time course of cell death in d6 LUHMES (phase contrast, TMRE, H-33342, propidium iodide); format: cell-based, human; settings: 10 μM
Experimental: Cells were stained either with 50 nM tetramethylrhodamine ethyl ester (TMRE) or 1.5 μM propidium iodide (PI) for at least 30 min at 37 °C and 5% CO2 ([Brüll et al., 2020]; [Krug et al., 2014]). Fluorescent imaging was performed (AxioObserver, Zeiss, Germany) with excitation/emission wavelengths of 575 ± 25/640 ± 35 nm.
To obtain additional information on the death process triggered by aerugine, we also examined earlier time points after exposure to a fixed concentration of 10 μM. Semi-quantitative information was obtained from phase contrast images, by staining of energized mitochondria with the potential-sensitive dye tetramethylrhodamine ethyl ester (TMRE) and by visualization of the chromatin structure with the […] dye H-33342. […] While the neurite structure was well-preserved, some of the cell bodies flattened in a way that the nucleus became visible in phase contrast. The normally round/dome-like cells took a flattened “fried egg” structure. In parallel, the DNA condensed and fragmented into small, round and highly-fluorescent spheres, a typical hallmark of apoptosis. Cells with apoptotic nuclei had lost their TMRE stain. At 8 h, more cell bodies looked flattened (“unhealthy”) and the neurites were thinning. […] This sequence of events is typical of neuronal apoptosis, e.g. under mild excitotoxic conditions, or after exposure to proteasome inhibitors or cytoskeletal poisons ([Gutbier et al., 2018b]; [Leist et al., 1997]; [Volbracht et al., 2001]; [Volbracht et al., 1999]). The overall kinetics of cell death was rather fast, compared to many other toxicants. […] To obtain a more quantitative confirmation of the rapid process, cells were stained with calcein-acetoxymethyl ester and propidium iodide (PI) and observed over time. The staining of nuclei (indication of plasma membrane permeability) by PI was quantified by an imaging algorithm. By 6 h, dead cells increased by 17 ± 6%, by 8 h by 25 ± 5%, and by 10 h, > 95% of the cell nuclei were positive. This confirms the fast cell death process triggered by aerugine (10 μM) in neurons.

## OCC1CSC(c2ccccc2O)=N1 (centres unmarked) [aerugine, 2-[4-(hydroxymethyl)-4,5-dihydro-1,3-thiazol-2-yl]phenol]
[1]
  EC50 at 24 h: 13 ± 0.2 µM
LUHMES neurons [2]
  LDH-release and resazurin reduction viability: confirmed the single cell data, although with slightly less sensitivity
LUHMES neurons [3]; 6 h exposure
  morphology (phase contrast, TMRE, H-33342): clear morphological changes became obvious
LUHMES neurons [3]; 8 h
  mitochondrial membrane potential in intact neurites (TMRE): the mitochondrial membrane potential was lost
LUHMES neurons [3]; 10 h
  morphology (neurites, nuclei): the majority of neurites was lost
LUHMES neurons [3]; by 6 h
  increase of dead cells (PI-stained nuclei): 17 ± 6%
LUHMES neurons [3]; by 8 h
  increase of dead cells (PI-stained nuclei): 25 ± 5%
LUHMES neurons [3]; by 10 h
  PI-positive cell nuclei: > 95%
